What was measured:
[1] = 101.33 kPa, Liquid; for electrical conductivity: Direct current cell with electrodes; for mass density: Vibrating tube method
[2] = mn = molality of the nth substance listed, in mol/kg; settings: 100 kPa, Liquid, Capillary tube (Ostwald / Ubbelohde) method, m2 = 0

CCCCn1cc[n+](C)c1.O=C([O-])c1ccccc1O [1-butyl-3-methylimidazolium salicylate]
[1], Cone and plate viscometry
Settings	viscosity [mPa·s]
293.15 K	1194.1
298.15 K	777.63
303.15 K	501.42
308.15 K	338.14
313.15 K	240
318.15 K	167.97
323.15 K	127.06

[1]
Settings	electrical conductivity [S/m]	mass density [kg/m3]
293.15 K	0.0182	1152.27
298.15 K	0.0281	1149.05
303.15 K	0.0447	1145.65
308.15 K	0.0692	1142.22
313.15 K	0.0965	1138.76
318.15 K	0.156	–
323.15 K	0.22	–

O [water]
[1], Capillary tube (Ostwald / Ubbelohde) method
Settings	viscosity [mPa·s]
293.15 K	1.003
298.15 K	0.89
303.15 K	0.797
308.15 K	0.719
313.15 K	0.653

O [water] + CCCCn1cc[n+](C)c1.O=C([O-])c1ccccc1O
[2]
Settings	viscosity [mPa·s]
293.15 K	1.003
298.15 K	0.89
303.15 K	0.797
308.15 K	0.719
313.15 K	0.653
